Reference: US11382328B2, “Rapid drug discovery methods for pathogen inactivation” (priority 2019, dated 2022)

System: E. coli strain W3110
Assay: Synergy assays: Biolog chemical sensitivity panels with Group IB metal, coefficient of drug interaction (CDI) from relative growth
Type: cell-based
Details: for CDI (coefficient of drug interaction), gold + biocide: Gold (μM)
[1] = Copper (mM), 1st of 3 copper concentrations (head line not shown), biocide concentration 1 of 4, E. coli
[2] = Copper (mM), 1st of 3 copper concentrations (head line not shown), biocide concentration 2 of 4, E. coli
[3] = Copper (mM), 1st of 3 copper concentrations (head line not shown), biocide concentration 3 of 4, E. coli
[4] = Copper (mM), 1st of 3 copper concentrations (head line not shown), biocide concentration 4 of 4, E. coli
[5] = Copper (mM), 2nd of 3 copper concentrations (head line not shown), biocide concentration 1 of 4, E. coli
[6] = Copper (mM), 2nd of 3 copper concentrations (head line not shown), biocide concentration 2 of 4, E. coli
[7] = Copper (mM), 2nd of 3 copper concentrations (head line not shown), biocide concentration 3 of 4, E. coli
[8] = Copper (mM), 2nd of 3 copper concentrations (head line not shown), biocide concentration 4 of 4, E. coli
[9] = Copper (mM), 3rd of 3 copper concentrations (head line not shown), biocide concentration 1 of 4, E. coli
[10] = Copper (mM), 3rd of 3 copper concentrations (head line not shown), biocide concentration 2 of 4, E. coli
[11] = Copper (mM), 3rd of 3 copper concentrations (head line not shown), biocide concentration 3 of 4, E. coli
[12] = Copper (mM), 3rd of 3 copper concentrations (head line not shown), biocide concentration 4 of 4, E. coli
[13] = first of 3 gold concentrations, biocide concentration 1 of 4
[14] = first of 3 gold concentrations, biocide concentration 2 of 4
[15] = first of 3 gold concentrations, biocide concentration 3 of 4
[16] = first of 3 gold concentrations, biocide concentration 4 of 4
[17] = second of 3 gold concentrations, biocide concentration 1 of 4
[18] = second of 3 gold concentrations, biocide concentration 2 of 4
[19] = second of 3 gold concentrations, biocide concentration 3 of 4
[20] = second of 3 gold concentrations, biocide concentration 4 of 4
[21] = third of 3 gold concentrations, biocide concentration 1 of 4
[22] = third of 3 gold concentrations, biocide concentration 2 of 4
[23] = third of 3 gold concentrations, biocide concentration 3 of 4
[24] = third of 3 gold concentrations, biocide concentration 4 of 4
[25] = Silver 0.5 μM, biocide concentration 1 of 4
[26] = Silver 0.5 μM, biocide concentration 2 of 4
[27] = Silver 0.5 μM, biocide concentration 3 of 4
[28] = Silver 0.5 μM, biocide concentration 4 of 4
[29] = Silver 1.0 μM, biocide concentration 1 of 4
[30] = Silver 1.0 μM, biocide concentration 2 of 4
[31] = Silver 1.0 μM, biocide concentration 3 of 4
[32] = Silver 1.0 μM, biocide concentration 4 of 4
[33] = Silver 5.0 μM, biocide concentration 1 of 4
[34] = Silver 5.0 μM, biocide concentration 2 of 4
[35] = Silver 5.0 μM, biocide concentration 3 of 4
[36] = Silver 5.0 μM, biocide concentration 4 of 4

| Compound | CDI (coefficient of drug interaction) [1] | CDI (coefficient of drug interaction) [2] | CDI (coefficient of drug interaction) [3] | CDI (coefficient of drug interaction) [4] | CDI (coefficient of drug interaction) [5] | CDI (coefficient of drug interaction) [6] | CDI (coefficient of drug interaction) [7] | CDI (coefficient of drug interaction) [8] | CDI (coefficient of drug interaction) [9] | CDI (coefficient of drug interaction) [10] | CDI (coefficient of drug interaction) [11] | CDI (coefficient of drug interaction) [12] | CDI [25] | CDI [26] | CDI [27] | CDI [28] | CDI [29] | CDI [30] | CDI [31] | CDI [32] | also measured |
| --- | --- | --- | --- | --- | --- | --- | --- | --- | --- | --- | --- | --- | --- | --- | --- | --- | --- | --- | --- | --- | --- |
| NC(CO)C(=O)NO (racemic) [D,L-serine hydroxamate] | 0.98 | 0.94 | 1.13 | Tox | 0.77 | 0.78 | 1.03 | 3.47 | 0.62 | 0.66 | 1.18 | Tox | 0.90 | 0.66 | 0.31 | Tox | 0.89 | 0.77 | 0.62 | Tox | CDI (coefficient of drug interaction), gold + biocide [13]: 1.04; CDI (coefficient of drug interaction), gold + biocide [14]: 0.95; CDI (coefficient of drug interaction), gold + biocide [15]: 1.45; CDI (coefficient of drug interaction), gold + biocide [16]: 0.71; CDI (coefficient of drug interaction), gold + biocide [17]: 1.02; CDI (coefficient of drug interaction), gold + biocide [18]: 1.00; CDI (coefficient of drug interaction), gold + biocide [19]: 1.22; CDI (coefficient of drug interaction), gold + biocide [20]: Tox; CDI (coefficient of drug interaction), gold + biocide [21]: 0.96; CDI (coefficient of drug interaction), gold + biocide [22]: 0.94; CDI (coefficient of drug interaction), gold + biocide [23]: 1.00; CDI (coefficient of drug interaction), gold + biocide [24]: Tox; CDI [33]: 0.82; CDI [34]: 0.61; CDI [35]: 0.53; CDI [36]: Tox |
| O=S(=O)(F)Cc1ccccc1 [PMSF] | 0.76 | 0.71 | 0.62 | 0.71 | 0.59 | 0.58 | 0.37 | 0.46 | 0.41 | 0.42 | 0.34 | 0.38 | 0.91 | 0.92 | 1.10 | 0.35 | 1.03 | 1.10 | 1.06 | 0.55 | CDI (coefficient of drug interaction) (Gold section of Table 5, first of three gold concentrations (μM, value not given), biocide concentration 1 of 4): 1.07; CDI (coefficient of drug interaction) (Gold section of Table 5, first of three gold concentrations (μM, value not given), biocide concentration 2 of 4): 0.96; CDI (coefficient of drug interaction) (Gold section of Table 5, first of three gold concentrations (μM, value not given), biocide concentration 3 of 4): 0.93; CDI (coefficient of drug interaction) (Gold section of Table 5, first of three gold concentrations (μM, value not given), biocide concentration 4 of 4): 0.74; CDI (coefficient of drug interaction) (Gold section of Table 5, second of three gold concentrations (μM, value not given), biocide concentration 1 of 4): 1.03; CDI (coefficient of drug interaction) (Gold section of Table 5, second of three gold concentrations (μM, value not given), biocide concentration 2 of 4): 1.05; CDI (coefficient of drug interaction) (Gold section of Table 5, second of three gold concentrations (μM, value not given), biocide concentration 3 of 4): 1.11; CDI (coefficient of drug interaction) (Gold section of Table 5, second of three gold concentrations (μM, value not given), biocide concentration 4 of 4): 0.85; CDI (coefficient of drug interaction) (Gold section of Table 5, third of three gold concentrations (μM, value not given), biocide concentration 1 of 4): 1.07; CDI (coefficient of drug interaction) (Gold section of Table 5, third of three gold concentrations (μM, value not given), biocide concentration 2 of 4): 1.16; CDI (coefficient of drug interaction) (Gold section of Table 5, third of three gold concentrations (μM, value not given), biocide concentration 3 of 4): 1.21; CDI (coefficient of drug interaction) (Gold section of Table 5, third of three gold concentrations (μM, value not given), biocide concentration 4 of 4): 2.21; CDI [35]: 1.25; CDI [36]: 0.60 |
| N.N.N.N.N.N.N.N.N.N.N.N.N.N.[Cl-].[Cl-].[Cl-].[Cl-].[Cl-].[Cl-].[O-2].[O-2].[Ru+3].[Ru+3].[Ru+4] [ruthenium red] | 0.73 | 0.60 | 0.51 | 0.50 | 0.52 | 0.47 | 0.37 | 0.30 | 0.45 | 0.38 | 0.33 | 0.29 | 0.78 | 0.79 | 0.75 | 0.69 | 0.87 | 0.89 | 0.83 | 0.34 | CDI (coefficient of drug interaction), gold + biocide [13]: 1.04; CDI (coefficient of drug interaction), gold + biocide [14]: 0.94; CDI (coefficient of drug interaction), gold + biocide [15]: 1.05; CDI (coefficient of drug interaction), gold + biocide [16]: 1.06; CDI (coefficient of drug interaction), gold + biocide [17]: 1.03; CDI (coefficient of drug interaction), gold + biocide [18]: 1.02; CDI (coefficient of drug interaction), gold + biocide [19]: 1.14; CDI (coefficient of drug interaction), gold + biocide [20]: 1.07; CDI (coefficient of drug interaction), gold + biocide [21]: 1.08; CDI (coefficient of drug interaction), gold + biocide [22]: 1.05; CDI (coefficient of drug interaction), gold + biocide [23]: 1.13; CDI (coefficient of drug interaction), gold + biocide [24]: 1.09; CDI [33]: 0.68; CDI [34]: 0.34; CDI [35]: 0.38; CDI [36]: 0.19 |
| colistin | 0.95 | 0.98 | Tox | Tox | 0.82 | 0.87 | Tox | Tox | 0.63 | 0.45 | Tox | Tox | 0.95 | 0.75 | Tox | Tox | 0.97 | 0.24 | Tox | Tox | CDI (coefficient of drug interaction), gold + biocide [13]: 1.10; CDI (coefficient of drug interaction), gold + biocide [14]: 1.18; CDI (coefficient of drug interaction), gold + biocide [15]: Tox; CDI (coefficient of drug interaction), gold + biocide [16]: Tox; CDI (coefficient of drug interaction), gold + biocide [18]: 0.95; CDI (coefficient of drug interaction), gold + biocide [19]: Tox; CDI (coefficient of drug interaction), gold + biocide [20]: Tox; CDI (coefficient of drug interaction), gold + biocide [21]: 1.09; CDI (coefficient of drug interaction), gold + biocide [22]: 0.14; CDI (coefficient of drug interaction), gold + biocide [23]: Tox; CDI (coefficient of drug interaction), gold + biocide [24]: Tox; CDI [33]: 0.84; CDI [34]: 0.08; CDI [35]: Tox; CDI [36]: Tox |
